Experimental data: patent US9422261B2, “Heterocyclic resorcinol derivatives, preparation of same and cosmetic uses thereof” (PIERRE FABRE DERMO-COSMETIQUE, priority 2011, dated 2016)
pIC50: −log10 of the molar value. One block for each molecule: values may come before it.

Key:
[1] = test system: B16-F10 cells; experiment: Assay of melanin in B16-F10 cells stimulated with α-MSH; assay type: cell-based, murine; conditions: 72 hours, 0.1 μM α-MSH; for Melanin assay, in strains B16F10 (%): negative value indicates inhibition; for pIC50: Mus musculus, B16-F10, read-out: Melanin assay, in strains B16F10, IC50
Protocol: This test measures melanin synthesis using a colorimetric assay on a murine melanoma cell line: B16-F10. […] B16-F10 cells are seeded in 96-well plates in DMEM medium supplemented with fetal calf serum (FCS) and then incubated for 24 hours at 37° C., 5% CO2. […] Each concentration of active agent is tested at least in triplicate. […] The total proteins are assayed in the lysate and the results are expressed in mg melanin/mg proteins: The percentage of activity is calculated as follows: A negative value indicates inhibition, whereas a positive value indicates induction of melanin synthesis. Biological Material: • B16-F10 cell line between […] (murine melanocytes) (ATCC, CRL-6475)

[2] = Antioxidant ability using chemiluminescence (Photochem, Analytik Jena); conditions: for μg of sample for 1 μg of Trolox: trapping of superoxide anions, chemiluminescence
Source text: This test is used to determine the antioxidant ability of the molecules. It is a method that generates free radicals by a photochemical signal. The intensity of the oxidation is 1000 times greater than that obtained under normal conditions.
Detection is by chemiluminescence. It enables the evaluation of water-soluble and lipid-soluble antioxidant molecules or extracts.
The results are expressed as equivalents of vitamin C or Trolox (6-hydroxy-2,5,7,8-tetramethylchroman-2-carboxylic acid), respectively. The sensitivity is on the order of the nanomole.
The antioxidant activity studied in this test represents the ability to specifically trap superoxide anions by chemiluminescence.
The quantified results are expressed in Trolox equivalents (standard), or “μg of product for 1 μg of Trolox.” This means that a quantity x of sample is needed to obtain activity equivalent to the activity detected for 1 μg of the standard. This represents antioxidant ability relative to a reference, which frees us from concern about the concentration tested.
The superoxide radical (O2°^−) is generated by a photochemical reaction: L+hv(UV)+O2→L*O2→L°^++O2°^− L*: luminol in the excited state L°^+: luminol radical
Some of the superoxide anions are quenched by the antioxidants. The remaining free radicals are quantified by chemiluminescence. L°^++O2°^−→N2+AP*^2−→AP^2−+hv (luminescence) AP*^2−: aminophthalate in the excited state

[3] = target: tyrosinase monophenol monooxygenase (MPMO) (Agaricus bisporus, UniProt C7FF04); experiment: biochemical
Protocol: (§1) The substrate, L-tyrosine, is transformed by the monophenol monooxygenase functional group into L-DOPA, itself transformed by the tyrosinase's polyphenol oxidase functional group into dopaquinone. The latter will auto-oxidize into dopachrome, which is measured by spectrophotometry at 490 nm.
(§2) More precisely, it is global tyrosinase activity (MPMOg) that is measured since ultimately it is dopachrome that is assayed. Thus, the products tested in terms of MPMOg (measurement of activity on PPO and MPMO) can accumulate the inhibition of the 2 functional groups; • inhibiting only the MPMO functional group in the strict sense (transformation of tyrosine into DOPA) in addition to the PPO test, • inhibiting only PPO.

[4] = Solubility in aqueous phase; assay type: physicochemical; conditions: aqueous phase / aqueous acidic solution
[5] = target: tyrosinase polyphenol oxidase (PPO) (Agaricus bisporus, UniProt C7FF04); experiment: Tyrosinase inhibition test, polyphenol oxidase (PPO) function, reference molecules; assay type: biochemical, mushroom; conditions: at 25 μM
Protocol: as §1, §2

Sequence of tyrosinase monophenol monooxygenase (MPMO) (C7FF04 1-392 limits assumed): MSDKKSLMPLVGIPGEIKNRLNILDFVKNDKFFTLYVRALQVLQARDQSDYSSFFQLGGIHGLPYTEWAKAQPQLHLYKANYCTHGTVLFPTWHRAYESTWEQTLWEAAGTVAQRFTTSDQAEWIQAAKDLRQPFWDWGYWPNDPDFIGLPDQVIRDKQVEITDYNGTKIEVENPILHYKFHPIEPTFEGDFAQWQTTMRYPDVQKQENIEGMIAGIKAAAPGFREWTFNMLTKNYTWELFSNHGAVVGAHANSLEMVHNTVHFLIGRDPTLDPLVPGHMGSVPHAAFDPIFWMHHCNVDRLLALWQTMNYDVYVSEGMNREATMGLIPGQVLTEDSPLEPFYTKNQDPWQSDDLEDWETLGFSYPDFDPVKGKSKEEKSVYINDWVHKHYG
Sequence of tyrosinase polyphenol oxidase (PPO) (C7FF04 1-392 limits assumed): as above

SMILES: CC(c1cccs1)c1ccc(O)cc1O (stereo not drawn) [Compound 1, 4-(1-(thiophene-2-yl)ethyl)benzene-1,3-diol]
Melanin assay, in strains B16F10 (%) ([1]; at 20 μM): −50% at 20 μM
μg of sample for 1 μg of Trolox [2]: 13.7 μg of sample for 1 μg of Trolox

inhibition at 88 µM ([3]; read-out: % inhibition (MPMO)): 57%
pIC50 [1]: 3.80
SMILES: OC[C@H]1O[C@@H](Oc2ccc(O)cc2)[C@H](O)[C@@H](O)[C@@H]1O [Arbutin, reference compound]

Solubility in aqueous phase [4]: insoluble in aqueous phase
SMILES: CC(c1ccccc1)c1ccc(O)cc1O (stereo not drawn) [4-(1-phenylethyl)benzene-1,3-diol, reference compound]

melting point: 89.9 °C
SMILES: CC(C)CC(c1cccs1)c1ccc(O)cc1O (stereo not drawn) [Compound 28, 4-(3-methyl-1-(thiophene-2-yl)butyl)benzene-1,3-diol]
Melanin assay, in strains B16F10 (%) ([1]; at 10 μM): −52% at 10 μM

SMILES: CC(c1nccs1)c1ccc(O)cc1O (stereo not drawn) [Compound 5, 4-(1-(thiazol-2-yl)ethyl)benzene-1,3-diol]
Melanin assay, in strains B16F10 (%) ([1]; at 20 μM): −33% at 20 μM
μg of sample for 1 μg of Trolox [2]: 11.7 μg of sample for 1 μg of Trolox

SMILES: CC(c1ccccn1)c1ccc(O)cc1O (stereo not drawn) [Compound 2, 4-(1-(pyridin-2-yl)ethyl)benzene-1,3-diol]
Melanin assay, in strains B16F10 (%) ([1]; at 20 μM): −26% at 20 μM
μg of sample for 1 μg of Trolox [2]: 10.4 μg of sample for 1 μg of Trolox

SMILES: CCCC(c1cccs1)c1ccc(O)cc1O (stereo not drawn) [Compound 31, 4-(1-(thiophene-2-yl)butyl)benzene-1,3-diol]
Melanin assay, in strains B16F10 (%) ([1]; at 10 μM): −50% at 10 μM

SMILES: N[C@@H](CCC(=O)N[C@@H](CS)C(=O)NCC(=O)O)C(=O)O [Reduced glutathione]
% inhibition (PPO) [5]: 55%
pIC50 ([3]; read-out: IC50 (MPMO), reference molecules for the test, MPMO): 5.70 to 6.00

SMILES: O=C(O)CCCC[C@@H]1CCSS1 (racemic) [Lipoic acid, reference compound]
μg of sample for 1 μg of Trolox (scale used to interpret the results) ([2]; reference products of the interpretation scale): NEGATIVE

SMILES: CC(c1cccnc1)c1ccc(O)cc1O (stereo not drawn) [Compound 3, 4-(1-(pyridin-3-yl)ethyl)benzene-1,3-diol]
Melanin assay, in strains B16F10 (%) ([1]; at 20 μM): −52% at 20 μM
μg of sample for 1 μg of Trolox [2]: 8.7 μg of sample for 1 μg of Trolox
Solubility in aqueous phase [4]: dissolve the active ingredient in aqueous acidic solution

pIC50 [1]: 2.62
SMILES: O=c1cc(CO)occ1O [Kojic acid, reference compound]

SMILES: CC(c1ccsc1)c1ccc(O)cc1O (stereo not drawn) [Compound 4, 4-(1-(thiophene-3-yl)ethyl)benzene-1,3-diol]
Melanin assay, in strains B16F10 (%) ([1]; at 20 μM): −52% at 20 μM
μg of sample for 1 μg of Trolox [2]: 15.4 μg of sample for 1 μg of Trolox
